# Calls of active or inactive are those of the source. No cut-off for these calls is given here.
# Experiments:
# [1] = Clearance in rat at 1 mg/kg; type: ADME, organism-based; conditions: in vivo
# [2] = Volume of distribution at steady state in dog at 1 mg/kg, iv; type: ADME, organism-based, Canis lupus familiaris; conditions: in vivo, read-out: Vdss
# [3] = Apparent permeability in MDCK-MDR1 cells; type: ADME, cell-based, Canis lupus familiaris; conditions: dog
# [4] = molecular target: Nav1.6 (sodium channel protein type 8 subunit alpha) (Homo sapiens, UniProt Q9UQD0); assay: Inhibition of Nav1.6 (unknown origin) at 30 uM relative to control; type: toxicity
# [5] = Inhibition of Nav1.5 (domain 1 and 2)-Nav 1.8 (domain 3 and 4) chimera (unknown origin) with resting membrane potential at half inactivated state by PatchXpress high-throughput electrophysiology method; set-up: species or system Homo sapiens
# [6] = molecular target: Nav1.1 (sodium channel protein type 1 subunit alpha) (Homo sapiens, UniProt P35498); assay: Inhibition of Nav1.1 (unknown origin) at 30 uM relative to control; type: toxicity
# [7] = molecular target: Sodium channel protein type 10 subunit alpha (Mus musculus, UniProt Q6QIY3); assay: Inhibition of mouse Nav1.8 with resting membrane potential at half inactivated state by PatchXpress high-throughput electrophysiology method
# [8] = Volume of distribution at steady state in cynomolgus monkey at 1 mg/kg, iv; type: ADME, organism-based, Macaca fascicularis; conditions: in vivo, read-out: Vdss
# [9] = Inhibition of Nav1.8 (domain 1 and 2)-Nav 1.5 (domain 3 and 4) chimera (unknown origin) with resting membrane potential at half inactivated state by PatchXpress high-throughput electrophysiology method; set-up: species or system Homo sapiens
# [10] = Efflux ratio of apparent permeability in MDCK-MDR1 cells; type: ADME, cell-based, Canis lupus familiaris; conditions: dog
# [11] = molecular target: T1, Sodium channel protein type 10 subunit alpha (Homo sapiens, UniProt Q9Y5Y9); assay: Inhibition of human Nav1.8 with resting membrane potential at half inactivated state by PatchXpress high-throughput electrophysiology method
# Target sequence in this assay (Q9Y5Y9 whole entry): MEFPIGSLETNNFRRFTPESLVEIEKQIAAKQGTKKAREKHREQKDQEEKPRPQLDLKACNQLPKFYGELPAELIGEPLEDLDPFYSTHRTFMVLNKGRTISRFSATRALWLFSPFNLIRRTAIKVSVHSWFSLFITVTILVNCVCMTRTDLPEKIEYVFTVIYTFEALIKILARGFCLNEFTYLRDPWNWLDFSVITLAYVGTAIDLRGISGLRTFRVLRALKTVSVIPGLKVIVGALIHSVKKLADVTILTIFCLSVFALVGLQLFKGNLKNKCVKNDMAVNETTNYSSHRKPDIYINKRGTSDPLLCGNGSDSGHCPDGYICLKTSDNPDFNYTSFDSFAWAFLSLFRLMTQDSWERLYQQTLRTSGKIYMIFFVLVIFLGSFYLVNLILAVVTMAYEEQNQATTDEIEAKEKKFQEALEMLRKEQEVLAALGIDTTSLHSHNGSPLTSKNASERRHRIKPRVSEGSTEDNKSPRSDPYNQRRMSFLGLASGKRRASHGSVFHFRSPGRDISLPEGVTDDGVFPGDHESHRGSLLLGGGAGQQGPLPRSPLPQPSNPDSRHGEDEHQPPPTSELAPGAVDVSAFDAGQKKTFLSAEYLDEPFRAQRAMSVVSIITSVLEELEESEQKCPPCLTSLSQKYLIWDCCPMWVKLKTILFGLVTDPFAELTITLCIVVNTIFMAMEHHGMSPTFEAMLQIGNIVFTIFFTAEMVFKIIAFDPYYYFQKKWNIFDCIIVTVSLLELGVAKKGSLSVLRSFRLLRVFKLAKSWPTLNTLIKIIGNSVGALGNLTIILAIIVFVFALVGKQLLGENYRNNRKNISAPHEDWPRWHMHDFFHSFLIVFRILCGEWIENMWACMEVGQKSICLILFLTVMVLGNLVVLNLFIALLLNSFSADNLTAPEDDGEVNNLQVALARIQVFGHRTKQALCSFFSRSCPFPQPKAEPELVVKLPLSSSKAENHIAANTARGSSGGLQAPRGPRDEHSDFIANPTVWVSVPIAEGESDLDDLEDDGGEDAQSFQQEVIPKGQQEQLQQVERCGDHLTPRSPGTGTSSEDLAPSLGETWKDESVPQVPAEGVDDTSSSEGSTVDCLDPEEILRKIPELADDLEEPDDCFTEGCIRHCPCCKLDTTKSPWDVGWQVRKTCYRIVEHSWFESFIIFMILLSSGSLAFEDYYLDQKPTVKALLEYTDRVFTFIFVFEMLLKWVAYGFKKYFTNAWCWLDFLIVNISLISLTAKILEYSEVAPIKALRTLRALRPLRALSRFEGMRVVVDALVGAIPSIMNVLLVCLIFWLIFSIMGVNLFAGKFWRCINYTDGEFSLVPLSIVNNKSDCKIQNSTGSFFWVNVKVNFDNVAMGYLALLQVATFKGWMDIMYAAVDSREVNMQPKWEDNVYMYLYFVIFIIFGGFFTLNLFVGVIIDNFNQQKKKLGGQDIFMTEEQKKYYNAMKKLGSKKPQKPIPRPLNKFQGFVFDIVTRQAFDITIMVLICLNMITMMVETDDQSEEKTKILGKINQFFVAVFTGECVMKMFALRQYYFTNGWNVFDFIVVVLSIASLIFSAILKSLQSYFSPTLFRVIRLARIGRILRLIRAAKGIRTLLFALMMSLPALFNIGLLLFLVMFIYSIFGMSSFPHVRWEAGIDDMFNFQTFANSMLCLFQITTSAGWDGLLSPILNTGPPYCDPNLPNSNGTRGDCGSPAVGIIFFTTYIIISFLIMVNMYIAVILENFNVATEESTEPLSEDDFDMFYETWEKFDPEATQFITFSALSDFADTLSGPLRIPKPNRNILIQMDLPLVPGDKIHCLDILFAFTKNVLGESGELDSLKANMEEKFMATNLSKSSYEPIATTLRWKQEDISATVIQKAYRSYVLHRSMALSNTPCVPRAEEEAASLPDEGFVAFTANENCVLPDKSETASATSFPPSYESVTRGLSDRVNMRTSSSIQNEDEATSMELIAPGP
# [12] = molecular target: Nav1.5 (sodium channel protein type 5 subunit alpha) (Homo sapiens, UniProt Q14524); assay: Inhibition of Nav1.5 (unknown origin) at 30 uM relative to control; type: toxicity
# Cytochrome P450 1A2 = molecular target: T2, Cytochrome P450 1A2 (Homo sapiens, UniProt P05177); assay: Inhibition of CYP1A2 (unknown origin); type: ADME
# T2 sequence (P05177 whole entry): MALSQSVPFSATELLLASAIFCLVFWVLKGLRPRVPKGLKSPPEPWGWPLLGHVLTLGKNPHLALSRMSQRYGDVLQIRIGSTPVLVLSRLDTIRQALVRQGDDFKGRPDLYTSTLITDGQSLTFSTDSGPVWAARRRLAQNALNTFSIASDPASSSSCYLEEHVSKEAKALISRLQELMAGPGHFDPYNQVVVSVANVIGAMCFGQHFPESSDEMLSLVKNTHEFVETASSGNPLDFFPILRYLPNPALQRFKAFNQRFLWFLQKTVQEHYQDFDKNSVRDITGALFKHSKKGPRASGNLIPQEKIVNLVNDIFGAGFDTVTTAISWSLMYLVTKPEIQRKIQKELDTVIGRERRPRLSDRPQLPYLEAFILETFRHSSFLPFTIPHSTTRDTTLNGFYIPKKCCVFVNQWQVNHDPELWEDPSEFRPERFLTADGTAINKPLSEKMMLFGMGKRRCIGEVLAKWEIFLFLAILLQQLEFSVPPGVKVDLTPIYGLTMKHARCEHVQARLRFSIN
# [13] = molecular target: T1, Sodium channel protein type 10 subunit alpha; assay: Inhibition of Nav1.8 (unknown origin) at 10 uM by Ionflux high-throughput automated patch method
# Target sequence in this assay (Q9Y5Y9 whole entry, looked up): as the sequence (Q9Y5Y9 whole entry) above
# [14] = Oral bioavailability in cynomolgus monkey at 10 mg/kg; type: ADME, organism-based, Macaca fascicularis; conditions: in vivo
# [15] = Clearance in cynomolgus monkey at 1 mg/kg; type: ADME, organism-based, Macaca fascicularis; conditions: in vivo
# [16] = Oral bioavailability in rat at 10 mg/kg; type: ADME, organism-based; conditions: in vivo
# [17] = Stability in human liver microsomes assessed as parent compound remaining measured after 60 mins; type: ADME, Microsome; conditions: read-out: Stability
# [18] = Protein binding in human plasma assessed as unbound fraction; type: ADME, cell-free
# [19] = molecular target: Nav1.3 (sodium channel protein type 3 subunit alpha) (Homo sapiens, UniProt Q9NY46); assay: Inhibition of Nav1.3 (unknown origin) at 30 uM relative to control; type: toxicity
# [20] = Clearance in dog at 1 mg/kg; type: ADME, organism-based, Canis lupus familiaris; conditions: in vivo
# Cytochrome P450 3A4 = Cytochrome P450 3A4 (Homo sapiens, UniProt P08684); assay: Inhibition of CYP3A4 (unknown origin); type: ADME
# [21] = Volume of distribution at steady state in rat at 1 mg/kg, iv; type: ADME, organism-based; conditions: in vivo, read-out: Vdss
# [22] = Kinetic solubility of the compound in pH 7.4 phosphate buffered saline measured after 2 hrs by LC/MS analysis; type: physicochemical; conditions: read-out: Kinetic_solubility
# [23] = molecular target: Nav1.7 (sodium channel protein type 9 subunit alpha) (Homo sapiens, UniProt Q15858); assay: Inhibition of Nav1.7 (unknown origin) at 30 uM relative to control; type: toxicity
# [24] = Oral bioavailability in dog at 10 mg/kg; type: ADME, organism-based, Canis lupus familiaris; conditions: in vivo
# [25] = molecular target: T1, Sodium channel protein type 10 subunit alpha; assay: Inhibition of Nav1.8 (unknown origin) over expressed in HEK cells exposed to 1st depolarizing pulse at 10 Hz train of action potential at 35 nM; type: cell-based
# Target sequence in this assay (Q9Y5Y9 whole entry, looked up): as the sequence (Q9Y5Y9 whole entry) above
# [26] = molecular target: Voltage-gated inwardly rectifying potassium channel KCNH2 (Homo sapiens, UniProt Q12809); assay: Inhibition of human ERG; type: toxicity
# [27] = molecular target: T1, Sodium channel protein type 10 subunit alpha; assay: Inhibition of Nav1.8 (unknown origin) over expressed in HEK cells exposed to 120th depolarizing pulse at 10 Hz train of action potential at 35 nM; type: cell-based
# Target sequence in this assay (Q9Y5Y9 whole entry, looked up): as the sequence (Q9Y5Y9 whole entry) above
# [28] = Ratio of drug level in rat brain to plasma at 1 mg/kg, iv measured after 60 mins; type: ADME, organism-based; conditions: read-out: BPR
# [29] = molecular target: Nav1.2 (sodium channel protein type 2 subunit alpha) (Homo sapiens, UniProt Q99250); assay: Inhibition of Nav1.2 (unknown origin) at 30 uM relative to control; type: toxicity
# [30] = molecular target: Nav1.4 (sodium channel protein type 4 subunit alpha) (Homo sapiens, UniProt P35499); assay: Inhibition of Nav1.4 (unknown origin) at 30 uM relative to control; type: toxicity
# [31] = molecular target: T1, Sodium channel protein type 10 subunit alpha; assay: Inhibition of human Nav1.8 with resting membrane potential by PatchXpress high-throughput electrophysiology method
# Target sequence in this assay (Q9Y5Y9 whole entry): as the sequence (Q9Y5Y9 whole entry) above
# Cytochrome P450 2C9 = Cytochrome P450 2C9 (Homo sapiens, UniProt P11712); assay: Inhibition of CYP2C9 (unknown origin) at 2 to 8 uM; type: ADME; conditions: dose 2-8 µM
# Sequence of Cytochrome P450 2C9 (P11712 whole entry): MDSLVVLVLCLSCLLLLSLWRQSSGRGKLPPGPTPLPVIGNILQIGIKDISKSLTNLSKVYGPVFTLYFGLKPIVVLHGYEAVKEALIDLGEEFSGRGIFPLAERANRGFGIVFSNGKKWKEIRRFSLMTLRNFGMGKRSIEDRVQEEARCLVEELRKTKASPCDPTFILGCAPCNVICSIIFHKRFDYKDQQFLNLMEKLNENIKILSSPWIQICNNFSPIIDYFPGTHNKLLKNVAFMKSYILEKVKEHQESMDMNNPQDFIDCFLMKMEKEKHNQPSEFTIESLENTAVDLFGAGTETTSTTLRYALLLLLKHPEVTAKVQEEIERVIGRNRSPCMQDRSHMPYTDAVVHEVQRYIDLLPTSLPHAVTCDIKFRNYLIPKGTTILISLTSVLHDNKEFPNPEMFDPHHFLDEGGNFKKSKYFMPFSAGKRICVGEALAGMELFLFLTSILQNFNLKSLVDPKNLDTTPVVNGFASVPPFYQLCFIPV
# Sequence of Voltage-gated inwardly rectifying potassium channel KCNH2 (Q12809 whole entry): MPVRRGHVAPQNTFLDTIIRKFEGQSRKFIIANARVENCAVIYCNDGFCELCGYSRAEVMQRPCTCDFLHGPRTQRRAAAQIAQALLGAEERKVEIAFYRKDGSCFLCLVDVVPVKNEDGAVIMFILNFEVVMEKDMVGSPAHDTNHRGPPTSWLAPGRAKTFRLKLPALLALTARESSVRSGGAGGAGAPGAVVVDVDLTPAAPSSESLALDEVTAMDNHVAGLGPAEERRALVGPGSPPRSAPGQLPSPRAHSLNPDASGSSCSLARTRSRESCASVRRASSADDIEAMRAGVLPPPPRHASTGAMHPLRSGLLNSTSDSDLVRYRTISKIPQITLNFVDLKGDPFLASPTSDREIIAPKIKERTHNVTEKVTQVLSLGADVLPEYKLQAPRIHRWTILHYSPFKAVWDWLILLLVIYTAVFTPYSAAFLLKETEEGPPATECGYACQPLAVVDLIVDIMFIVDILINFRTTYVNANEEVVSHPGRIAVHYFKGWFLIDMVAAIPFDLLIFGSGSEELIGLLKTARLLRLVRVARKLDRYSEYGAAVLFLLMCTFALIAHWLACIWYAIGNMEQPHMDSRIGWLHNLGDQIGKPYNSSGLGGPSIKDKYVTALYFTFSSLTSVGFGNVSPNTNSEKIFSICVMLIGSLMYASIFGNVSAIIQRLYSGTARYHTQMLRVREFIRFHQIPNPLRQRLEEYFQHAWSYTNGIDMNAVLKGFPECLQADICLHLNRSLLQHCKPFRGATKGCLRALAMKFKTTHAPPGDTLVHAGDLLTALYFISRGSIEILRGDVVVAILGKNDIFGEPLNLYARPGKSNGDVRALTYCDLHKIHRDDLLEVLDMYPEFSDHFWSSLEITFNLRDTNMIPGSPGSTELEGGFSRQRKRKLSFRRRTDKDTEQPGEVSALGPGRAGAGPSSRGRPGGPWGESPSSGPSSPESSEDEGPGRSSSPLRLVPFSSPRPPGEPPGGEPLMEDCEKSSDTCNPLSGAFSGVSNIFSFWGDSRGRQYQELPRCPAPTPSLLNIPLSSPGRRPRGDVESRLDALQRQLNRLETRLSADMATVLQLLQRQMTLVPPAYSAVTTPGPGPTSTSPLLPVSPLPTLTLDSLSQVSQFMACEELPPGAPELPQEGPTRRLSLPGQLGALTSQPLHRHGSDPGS
# Sequence of Cytochrome P450 3A4 (P08684 whole entry): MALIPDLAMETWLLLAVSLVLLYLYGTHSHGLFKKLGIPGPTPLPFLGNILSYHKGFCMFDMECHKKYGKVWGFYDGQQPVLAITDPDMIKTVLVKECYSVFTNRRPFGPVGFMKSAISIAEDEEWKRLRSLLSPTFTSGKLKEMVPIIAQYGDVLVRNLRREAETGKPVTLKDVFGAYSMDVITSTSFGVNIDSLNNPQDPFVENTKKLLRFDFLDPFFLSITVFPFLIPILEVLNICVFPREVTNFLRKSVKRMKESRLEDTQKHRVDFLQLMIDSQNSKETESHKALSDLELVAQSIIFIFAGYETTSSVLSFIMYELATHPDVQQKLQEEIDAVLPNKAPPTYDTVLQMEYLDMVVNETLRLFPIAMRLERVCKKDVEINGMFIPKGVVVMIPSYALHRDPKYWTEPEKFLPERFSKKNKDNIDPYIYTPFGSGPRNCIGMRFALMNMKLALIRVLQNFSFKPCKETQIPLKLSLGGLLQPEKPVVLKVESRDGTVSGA
clearance [1],Vd [2],Papp [3],IC50 [7],efflux ratio [10],IC50 [11],INH (Cytochrome P450 1A2),inhibition [13],bioavailability [16],remaining at 1 h [17],fraction unbound [18],clearance [20],INH (Cytochrome P450 3A4),Vd [21],solubility kinetic at 2 h [22],bioavailability [24],Compound,IC50 [26],also measured
6.1 mL/min/kg,1.2 L/kg,18.1 ×10⁻⁶ cm/s,3.04 µM,0.8,35 nM,> 30 µM,Active,80%,> 95%,0.14,1.7 mL/min/kg,> 30 µM,1.8 L/kg,65 µg/mL,39%,Cc1cc(F)ccc1Oc1ncc(C(F)(F)F)cc1C(=O)Nc1cccc([S@](C)(=N)=O)c1,> 30 µM,inhibition at 30 µM [4]: < 25%; IC50 [5]: > 30 µM; inhibition at 30 µM [6]: < 25%; Vd [8]: 1.9 L/kg; IC50 [9]: 40 nM; inhibition at 30 µM [12]: < 25%; bioavailability [14]: 61%; clearance [15]: 7.7 mL/min/kg; inhibition at 30 µM [19]: < 25%; inhibition at 30 µM [23]: < 25%; inhibition [25]: 33.8%; inhibition [27]: 35.5%; Kp at 1 h [28]: 0.6; inhibition at 30 µM [29]: < 25%; inhibition at 30 µM [30]: < 25%; IC50 [31]: 53 nM
24 mL/min/kg,3.4 L/kg,63 ×10⁻⁶ cm/s,3.1 µM,0.7,71 nM,4 µM,Active,45%,95%,0.15,11 mL/min/kg,> 30 µM,1 L/kg,95 µg/mL,100%,COc1cc(F)ccc1Oc1cc(C(F)(F)F)ncc1C(=O)Nc1ccnnc1,> 30 µM,inhibition (INH) (Cytochrome P450 2C9): Moderate_effect

# From ChEMBL document CHEMBL6114946, “Development and characterization of pyridyl carboxamides as potent and highly selective Nav1.8 inhibitors” (Bioorg Med Chem Lett, 2025)
